Data reported in US4357470A, “Cephalosporin compounds” (Taisho Pharmaceutical Co., Ltd., priority 1980, dated 1982).
Counter-ions that a name gives are not always drawn. Like-named read-outs stand apart in the source and are kept apart here.

Experiments:
[1] = test system: Pseudomonas aeruginosa NC-5; test: Antibacterial activity, agar plate dilution method (MIC), P. aeruginosa; format: cell-based; conditions: NC5
Method: (§1) Antibacterial activities of the compounds of the present invention were tested about various microorganisms using an agar plate dilution method. Commercial cefazolin sodium was used as a control. The test results for 7-[D-α-(4-hydroxy-pyrazino[2,3-f]quinoline-3-carboxamido)-α-phenylacetamido]-3-(1-carboxymethyl-tetrazole-5-yl)thiomethyl-Δ^3 -cephem-4-carboxylic acid disodium salt (TC-203) and 7-[D-Δ-(4-hydroxy-pyrazino[2,3-f]quinoline-3-carboxamido)-Δ-(4-hydroxyphenyl)acetamido]-3-(1-carboxymethyl-tetrazole-5-yl)thiomethyl-Δ^3 -cephem-4-carboxylic acid disodium salt (TC-403) are expressed by MIC value (Minimum Inhibitory Concentration, μg/ml) and shown in Table 1.

Escherichia coli NIHJC-2 = test: Antibacterial activity, agar plate dilution method (MIC), E. coli; format: cell-based; conditions: NIHJC2
Method: as §1

[2] = test system: Staphylococcus aureus FDA 209 P; test: Antibacterial activity, agar plate dilution method (MIC), S. aureus; format: cell-based; conditions: FDA209
Method: as §1

[3] = test system: Klebsiella pneumoniae 3K-2; test: Antibacterial activity, agar plate dilution method (MIC), K. pneumoniae; format: cell-based; conditions: 3K2
Method: as §1

Proteus vulgaris IID 874 = test: Antibacterial activity, agar plate dilution method (MIC), P. vulgaris; format: cell-based; conditions: IID874
Method: as §1

in vivo = test: in vivo; set-up: species or system mice; conditions: mouse, im
Method: The compounds of the present invention were administered to mice intramuscularly and change of blood levels with lapse of time was determined. Commercial cefazolin sodium was used as a control.

[4] = Intraperitoneal acute toxicity in rats; format: in vivo; conditions: dose less than 5000 mg/kg of body weight
Source text: The compounds of the present invention are of low toxicity.

[5] = Escherichia coli NIHJC-2, agar plate dilution, read-out: MIC

O=C(O)Cn1nnnc1SCC1=C(C(=O)O)N2C(=O)[C@@H](NC(=O)[C@H](NC(=O)c3cnc4ccc5nccnc5c4c3O)c3ccccc3)[C@H]2SC1 [TC-203, 7-[D-α-(4-hydroxy-pyrazino[2,3-f]quinoline-3-carboxamido)-α-phenylacetamido]-3-(1-carboxymethyl-tetrazole-5-yl)thiomethyl-Δ^3-cephem-4-carboxylic acid disodium salt]
MIC [1]: 12.5 mg/L | MIC (Escherichia coli NIHJC-2; [5]): 0.78 mg/L | MIC [2]: 3.13 mg/L | MIC [3]: 0.78 mg/L | MIC (Proteus vulgaris IID 874): 1.56 mg/L | concentration at 0.25 h (in vivo): 150 µg/mL | concentration at 0.5 h (in vivo): 162 µg/mL | concentration at 1 h (in vivo): 82 µg/mL | concentration at 2 h (in vivo): 32 µg/mL

O=C(O)Cn1nnnc1SCC1=C(C(=O)O)N2C(=O)[C@@H](NC(=O)[C@H](NC(=O)c3cnc4ccc5nccnc5c4c3O)c3ccc(O)cc3)[C@H]2SC1 [TC-403, 7-[D-Δ-(4-hydroxy-pyrazino[2,3-f]quinoline-3-carboxamido)-Δ-(4-hydroxyphenyl)acetamido]-3-(1-carboxymethyl-tetrazole-5-yl)thiomethyl-Δ^3-cephem-4-carboxylic acid disodium salt]
MIC [1]: 12.5 mg/L | MIC (Escherichia coli NIHJC-2; [5]): 1.56 mg/L | intraperitoneal acute toxicity [4]: hardly shows any intraperitoneal acute toxicity in rats at a dose less than 5000 mg/kg of body weight | MIC [2]: 6.25 mg/L | MIC [3]: 1.56 mg/L | MIC (Proteus vulgaris IID 874): 3.13 mg/L | concentration at 0.25 h (in vivo): 92 µg/mL | concentration at 0.5 h (in vivo): 180 µg/mL | concentration at 1 h (in vivo): 62 µg/mL | concentration at 2 h (in vivo): 42 µg/mL

Cc1nnc(SCC2=C(C(=O)O)N3C(=O)[C@@H](NC(=O)Cn4cnnn4)[C@H]3SC2)s1 [cefazolin sodium, reference compound]
MIC [1]: > 100 mg/L | MIC (Escherichia coli NIHJC-2; Escherichia coli): 1.56 mg/L | MIC [2]: < 0.1 mg/L | MIC [3]: > 100 mg/L | MIC (Proteus vulgaris IID 874): > 100 mg/L | concentration at 0.25 h (in vivo): 62 µg/mL | concentration at 0.5 h (in vivo): 42 µg/mL | concentration at 1 h (in vivo): 5.5 µg/mL
